Data published in patent US12503452B2 (Curza Global, LLC, priority 2019, dated 2025).
Like-named read-outs stand apart in the source and are kept apart here.

Key:
[1] = test system: E. coli S30 extract (bacterial protein synthesis); experiment: E. coli S30 extract coupled transcription-translation luciferase assay (inhibition of bacterial protein synthesis); format: biochemical; settings: read-out: S30 IC50 (μM/% inhib.)
Protocol: E. coli S30 extract: Inhibition of bacterial protein synthesis was determined using the E. coli S30 Extract System for Circular DNA (Promega catalog #L-2010) and Luciferase Assay Reagent (Promega catalog #E1500) with slight modifications to a published protocol. Fyfe, C., Sutcliffe, J. A. and Grossman, T. H. (2012) “Development and characterization of a Pseudomonas aeruginosa in vitro coupled transcription-translation assay system for evaluation of translation inhibitors” J. Microbiol. Methods 90(3), 256-261.
Compounds were serial diluted in 0.5 mL microcentrifuge tubes by mixing and transferring 50 μL from the highest concentration to 50 μL of water, mixing and transferring 50 μL of this 2-fold dilution to 50 μL of water. This mixing and transferring was repeated so that there are a total of 8 tubes with serial dilutions of compound at 10× the desired screening concentration that are ultimately diluted to 1× by the addition of S30 luciferase synthesis mixture. Serial dilutions of compounds were added (2 μL) to wells in a black round bottom 96-well plate. Water (2 μL) was used as a “no inhibitor” control in 4 wells/plate. No DNA control reaction mixture (20 μL; see below) was used as a control in 4 wells/plate for background luminescence. S30 luciferase synthesis mixture (18 μL; see below) was added to wells with compounds or water mixture and incubated at 37° C. for 1 hour. Reactions were stopped by transferring to 4° C. refrigerator for 5 minutes then 25 μL of luciferase activity mix was added. Luminescence was measured using a BioTek Synergy HTX plate reader. % Inhibition was determined relative to no inhibitor controls.
S30 luciferase synthesis mixture:
• 445 μL S30 extract, circular • 712 μL S30 Premix without amino acids • 4.45 μL pBESTluc™ DNA (1 μg/μL) • 78 μL complete amino acid mixture • 267 μL water No DNA control: • 20 μL S30 extract, circular • 32 μL S30 Premix without amino acids • 7 μL complete amino acid mixture • 21 μL water Rabbit Reticulocyte lysate

[2] = molecular target: Rabbit Reticulocyte Lysate (eukaryotic protein synthesis); experiment: Rabbit reticulocyte lysate luciferase assay (inhibition of eukaryotic protein synthesis); format: biochemical; settings: read-out: Rabbit reticulocyte IC50 (μM/% inhib.)
Protocol: Inhibition of eukaryotic protein synthesis was determined using the Rabbit Reticulocyte Lysate System, Nuclease-Treated from Promega (catalog #L-4960) with slight modifications to the manufacturer's protocol. Compounds were serial diluted in 0.5 mL microcentrifuge tubes by mixing and transferring 50 μL from the highest concentration to 50 μL of water, mixing and transferring 50 μL of this 2-fold dilution to 50 μL of water. This mixing and transferring was repeated so that there are a total of 8 tubes with serial dilutions of compound at 10× the desired screening concentration that are ultimately diluted to 1× by the addition of rabbit reticulocyte luciferase synthesis mixture. Serial dilutions of compounds were added ([…]) to wells in a black round bottom 96-well plate. Water (2.5 μL) was used as a “no inhibitor” control in 4 wells/plate. No RNA control reaction mixture ([…]; see below) was used as a control in 4 wells/plate for background luminescence. Rabbit reticulocyte luciferase synthesis mixture (22.5 μL; see below) was added to wells with compounds or water mixture and incubated at 30° C. for 90 minutes. Luciferase assay reagent (25 μL) was added with luminescence measured using a BioTek Synergy HTX plate reader. % Inhibition was determined relative to no inhibitor controls.
Rabbit reticulocyte luciferase synthesis mixture:
• 1,000 μL rabbit reticulocyte lysate • 5.7 μL Luciferase Control RNA (1 μg/μL) • 26 μL complete amino acid mixture • 395 μL water No RNA Control • 70 μL rabbit reticulocyte lysate • 2 μL complete amino acid mixture • 28 μL water Minimum Inhibitory Concentration (MIC)

[3] = class by IC50 or % inhibition @ 1 μM

SMILES	IC50 [1, 3] [µM]	IC50 [2, 3] [µM]	IC50 ([1]; % inhibition @ 1 μM) [µM]	IC50 ([2]; % inhibition @ 1 μM) [µM]
CC(C)(N)C(=O)N1CCN(C(=O)Nc2ccn(-c3ccc(CCN4CCCC(CN)C4)cc3)c(=O)n2)CC1 (stereo not drawn) [Compound 10]	< 0.5	> 1	–	–
CC(C)(N)CC(=O)N1CCN(C(=O)Nc2ccn(-c3ccc(CCN4CCC(N)CC4)cc3)c(=O)n2)CC1 [Compound 197]	> 1	–	–	–
CC(C)(N)C(=O)N1CCN(C(=O)Nc2ccn(-c3ccc(CCN4CC(N)C4)cc3)c(=O)n2)CC1 [Compound 16]	> 1	> 1	–	–
CC(C)(N)C(=O)N1CCN(C(=O)Nc2ccn(-c3ccc(CN4CCC(NC(=N)N)CC4)cc3)c(=O)n2)CC1 [Compound 105]	< 0.5	< 0.5	–	–
CC[C@H]1CN(C(=O)Nc2ccn(-c3ccc(CN4CCC(N)CC4)cc3)c(=O)n2)CCN1C(=O)C(C)(C)N [Compound 66]	> 1	> 1	–	–
CC(C)[C@H]1CN(C(=O)C(C)(C)N)CCN1C(=O)Nc1ccn(-c2ccc(CN3CCC(N)CC3)cc2)c(=O)n1 [Compound 77]	> 1	> 1	–	–
NC[C@@H]1CCN(C(=O)Nc2ccn(-c3ccc(CN4CCC(N)CC4)cc3)c(=O)n2)C1 [Compound 53]	> 1	> 1	–	–
COC(=O)[C@@H]1CN(C(=O)C(C)(C)N)CCN1C(=O)Nc1ccn(-c2ccc(CN3CCC(N)CC3)cc2)c(=O)n1 [Compound 63]	0.5 to 1	> 1	–	–
NCC1CCCN(C(=O)Nc2ccn(-c3ccc(CN4CCC(N)CC4)cc3)c(=O)n2)C1 (stereo not drawn) [Compound 46]	> 1	> 1	–	–
CC(C)(N)C(=O)N1CCN(C(=O)Nc2ccn(-c3ccc(CN4CCC(N)CC4)cc3)c(=O)n2)CC1c1ccccc1 (stereo not drawn) [Compound 75]	–	> 1	–	–
NCC1CN(C(=O)Nc2ccn(-c3ccc(CN4CCC(N)CC4)cc3)c(=O)n2)CCO1 (stereo not drawn) [Compound 51]	> 1	> 1	–	–
CC(C)(N)C(=O)N1CCN(C(=O)Nc2ccn(-c3cccc(CCN4CC[C@H](N)C4)c3)c(=O)n2)CC1 [Compound 6]	> 1	> 1	–	–
NC1CCN(Cc2ccc(-n3ccc(NC(=O)N4CCCNCC4)nc3=O)cc2)CC1 [Compound 54]	> 1	> 1	–	–
CC(C)(N)C(=O)N1CCN(C(=O)Nc2ccn(-c3ccc(CCN4CC[C@@H](CN)C4)cc3)c(=O)n2)CC1 [Compound 18]	< 0.5	> 1	–	–
CC(C)(N)C(=O)N1CCN(C(=O)Nc2ccn(-c3ccc(C(C)(C)CN4CC[C@@H](CN)C4)cc3)c(=O)n2)CC1 [Compound 38]	> 1	> 1	–	–
CC1(N)CCN(CCc2ccc(-n3ccc(NC(=O)N4CCN(C(=O)C(C)(N)CO)CC4)nc3=O)cc2)CC1 (stereo in doubt) [Compound 361]	–	–	> 1	> 1
CC(C)(N)C(=O)N1CCN(C(=O)Nc2ccn(-c3ccc(CCN4CC[C@H](CN)C4)cc3)c(=O)n2)CC1 [Compound 17]	< 0.5	> 1	–	–
CC(C)(N)C(=O)N1CCN(C(=O)Nc2ccn(-c3ccc(CN4CCC(N)CC4)cc3)c(=O)n2)CC1(C)C [Compound 73]	–	> 1	–	–
CC(C)(N)C(=O)N1CCN(C(=O)Nc2ccn(-c3ccc(CCN4CCC[C@H](N)C4)cc3)c(=O)n2)CC1 [Compound 9]	> 1	–	–	–
C[C@@H]1CN(C(=O)C(C)(C)N)[C@@H](C)CN1C(=O)Nc1ccn(-c2ccc(CN3CCC(N)CC3)cc2)c(=O)n1 [Compound 60]	–	> 1	–	–
CC(C)(N)C(=O)N1CCN(C(=O)Nc2ccn(-c3ccc(CCN4CC[C@H](N)C4)cc3)c(=O)n2)CC1 [Compound 7]	> 1	–	–	–
CC(C)(N)C(=O)N1CCN(C(=O)Nc2ccn(-c3cccc(CCN4CCCC(CN)C4)c3)c(=O)n2)CC1 (stereo not drawn) [Compound 3]	> 1	–	–	–
CNC1CCN(CCc2cccc(-n3ccc(NC(=O)N4CCN(C(=O)C(C)(C)N)CC4)nc3=O)c2)CC1 [Compound 4]	> 1	–	–	–
C[C@@H]1CN(C(=O)C(C)(C)N)C[C@H](C)N1C(=O)Nc1ccn(-c2ccc(CN3CCC(N)CC3)cc2)c(=O)n1 [Compound 76]	–	> 1	–	–
